Consider 22 compounds from US20110212968A1, “PHENETHYLAMIDE DERIVATIVES AND THEIR HETEROCYCLIC ANALOGUES” (priority 2008, published 2011).

One test deals with T1, human orexin-2 receptor (Homo sapiens, UniProt O43614).
T1 construct: expressed in transfected cells; host or cells: CHO (Chinese hamster ovary) cells, kept under G418 selection
T1 sequence (O43614 1-444): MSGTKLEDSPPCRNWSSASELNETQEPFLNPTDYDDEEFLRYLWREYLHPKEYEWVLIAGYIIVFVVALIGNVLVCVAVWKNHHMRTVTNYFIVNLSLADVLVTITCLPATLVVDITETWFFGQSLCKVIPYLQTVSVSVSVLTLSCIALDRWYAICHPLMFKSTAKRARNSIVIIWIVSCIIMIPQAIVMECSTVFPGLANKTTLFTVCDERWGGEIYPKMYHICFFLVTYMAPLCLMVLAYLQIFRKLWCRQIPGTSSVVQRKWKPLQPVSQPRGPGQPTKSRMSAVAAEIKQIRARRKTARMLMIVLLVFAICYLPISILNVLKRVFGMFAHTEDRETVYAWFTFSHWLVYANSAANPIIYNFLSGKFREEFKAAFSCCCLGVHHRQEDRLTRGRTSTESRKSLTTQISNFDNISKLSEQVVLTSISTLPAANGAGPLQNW
In words: Intracellular calcium measurement (FLIPR Tetra), orexin receptor antagonistic activity, OX2. Format: cell-based. Conditions: CHO cells expressing human orexin-2 receptor, 3 nM orexin-A, conditions B, normalized (*) using IC50 of on-plate reference compound. The essentials: (§1)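 Recombinant CHO cells expressing human OX1 or OX2, loaded with fluo-4 AM plus probenecid, were preincubated with antagonist 10 min, then stimulated with 3 nM human orexin-A. Peak fluorescence was compared with vehicle; IC50 derived, sometimes normalized to an on-plate reference compound; two pipetting/cell-splitting conditions were used.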
For orientation: A change in cytosolic calcium serves as a functional read-out for many receptors and channels.

For the next test, the target named is T2, human orexin-1 receptor (Homo sapiens, UniProt O43613).
T2 construct: expressed in transfected cells; host or cells: CHO (Chinese hamster ovary) cells, kept under G418 selection
T2 sequence (O43613 1-425): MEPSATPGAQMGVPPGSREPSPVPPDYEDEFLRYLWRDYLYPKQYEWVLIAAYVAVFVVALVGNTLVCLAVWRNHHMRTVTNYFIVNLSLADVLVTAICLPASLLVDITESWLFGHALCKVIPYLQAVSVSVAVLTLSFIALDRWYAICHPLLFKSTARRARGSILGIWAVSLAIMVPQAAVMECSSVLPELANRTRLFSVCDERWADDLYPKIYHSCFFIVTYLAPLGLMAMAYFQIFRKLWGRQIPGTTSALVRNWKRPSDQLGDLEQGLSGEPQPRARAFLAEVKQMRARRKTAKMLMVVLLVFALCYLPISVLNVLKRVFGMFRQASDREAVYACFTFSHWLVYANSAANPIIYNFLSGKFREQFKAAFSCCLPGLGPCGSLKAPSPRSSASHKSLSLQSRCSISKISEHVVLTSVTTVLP
Put plainly: Intracellular calcium measurement (FLIPR Tetra), orexin receptor antagonistic activity, OX1. Conditions: CHO cells expressing human orexin-1 receptor, 3 nM orexin-A, conditions B, normalized (*) using IC50 of on-plate reference compound. Type of test: cell-based. The essentials:
as §1

A word on the IC50: it is the concentration needed to halve the response being measured. In the case of `CN(C)c1cccc(-c2ocnc2C(=O)N(CCc2c[nH]c3ccc(F)cc23)CC2CC2)c1` [Example 261, 5-(3-Dimethylamino-phenyl)-oxazole-4-carboxylic acid cyclopropylmethyl-[2-(5-fluoro-1H-indol-3-yl)-ethyl]-amide], the IC50 stood at 185 nM at human orexin-2 receptor and 576 nM on human orexin-1 receptor.

For the compound `Cc1nc(-c2ccc(Cl)cc2)c(C(=O)N(CCc2c[nH]c3ccc(F)cc23)CC2CC2)s1` [Example 262, 4-(4-Chloro-phenyl)-2-methyl-thiazole-5-carboxylic acid cyclopropylmethyl-[2-(5-fluoro-1H-indol-3-yl)-ethyl]-amide], the IC50 on human orexin-2 receptor amounted to 470 nM; at human orexin-1 receptor, 9210 nM.

For the compound `Cc1nc(C(=O)N(CCc2c[nH]c3ccc(F)cc23)CC2CC2)c(-c2ccc(C)c(F)c2F)s1` [Example 273, 5-(2,3-Difluoro-4-methyl-phenyl)-2-methyl-thiazole-4-carboxylic acid cyclopropylmethyl-[2-(5-fluoro-1H-indol-3-yl)-ethyl]-amide], the IC50 at human orexin-2 receptor worked out at 64 nM; at human orexin-1 receptor, 407 nM.

Consider `Cc1ccc(-c2scnc2C(=O)N(CCc2c[nH]c3ccc(F)cc23)CC2CC2)cc1C` [Example 274, 5-(3,4-Dimethyl-phenyl)-thiazole-4-carboxylic acid cyclopropylmethyl-[2-(5-fluoro-1H-indol-3-yl)-ethyl]-amide], for which the IC50 at human orexin-2 receptor is 66 nM; at human orexin-1 receptor it was 155 nM.

Take `COc1nc(C(=O)N(CCc2c[nH]c3ccc(F)cc23)CC2CC2)c(-c2cccc(C)c2)s1` [Example 275, 2-Methoxy-5-m-tolyl-thiazole-4-carboxylic acid cyclopropylmethyl-[2-(5-fluoro-1H-indol-3-yl)-ethyl]-amide]: the figures for the IC50 at human orexin-2 receptor and on human orexin-1 receptor were 70 nM and 201 nM, respectively.

Consider `Cc1ccc(-c2sc(C3CC3)nc2C(=O)N(CCc2c[nH]c3ccc(F)cc23)CC2CC2)cc1F` [Example 276, 2-Cyclopropyl-5-(3-fluoro-4-methyl-phenyl)-thiazole-4-carboxylic acid cyclopropylmethyl-[2-(5-fluoro-1H-indol-3-yl)-ethyl]-amide], for which the IC50 on human orexin-2 receptor worked out at 601 nM; on human orexin-1 receptor it was 2260 nM.

As for `Cc1cccc(-c2sc(CN(C)C)nc2C(=O)N(CCc2c[nH]c3ccc(F)cc23)CC2CC2)c1` [Example 279, 2-Dimethylaminomethyl-5-m-tolyl-thiazole-4-carboxylic acid cyclopropylmethyl-[2-(5-fluoro-1H-indol-3-yl)-ethyl]-amide], the IC50 amounted to 283 nM on human orexin-2 receptor and 5620 nM at human orexin-1 receptor.

`CCCN(CCc1c[nH]c2ccc(F)cc12)C(=O)c1nccnc1-c1ccccc1` [Example 283, 3-Phenyl-pyrazine-2-carboxylic acid [2-(5-fluoro-1H-indol-3-yl)-ethyl]-propyl-amide]: the IC50 worked out at 16 nM on human orexin-2 receptor and 192 nM at human orexin-1 receptor.

As to `COC(=O)CN(CCc1c[nH]c2ccc(F)cc12)C(=O)c1nccnc1-c1ccccc1` [Example 286, [[2-(5-Fluoro-1H-indol-3-yl)-ethyl]-(3-phenyl-pyrazine-2-carbonyl)-amino]-acetic acid methyl ester], the IC50 is 322 nM at human orexin-2 receptor and 2730 nM on human orexin-1 receptor.

Regarding `CC(C)N(CCc1c[nH]c2ccc(F)cc12)C(=O)c1nccnc1-c1ccccc1` [Example 287, 3-Phenyl-pyrazine-2-carboxylic acid [2-(5-fluoro-1H-indol-3-yl)-ethyl]-isopropyl-amide], the IC50 on human orexin-2 receptor was found to be 585 nM; on human orexin-1 receptor it was 2440 nM.

With `O=C(c1nccnc1-c1ccccc1)N(CCO)CCc1c[nH]c2ccc(F)cc12` [Example 289, 3-Phenyl-pyrazine-2-carboxylic acid [2-(5-fluoro-1H-indol-3-yl)-ethyl]-(2-hydroxy-ethyl)-amide], the IC50 is 627 nM on human orexin-2 receptor and greater than 4270 nM on human orexin-1 receptor.

Regarding `CCCN(CCc1c[nH]c2ccc(F)cc12)C(=O)c1nccnc1-c1ccc(C)c(C)c1` [Example 292, 3-(3,4-Dimethyl-phenyl)-pyrazine-2-carboxylic acid [2-(5-fluoro-1H-indol-3-yl)-ethyl]-propyl-amide], the IC50 stood at 10 nM on human orexin-2 receptor and 163 nM at human orexin-1 receptor.

As for `Cc1ccc(-c2nccnc2C(=O)N(CCc2c[nH]c3ccc(F)cc23)CC(N)=O)cc1C` [Example 294, 3-(3,4-Dimethyl-phenyl)-pyrazine-2-carboxylic acid carbamoylmethyl-[2-(5-fluoro-1H-indol-3-yl)-ethyl]-amide], the IC50 on human orexin-2 receptor was found to be 706 nM; on human orexin-1 receptor, 3820 nM.

As to `Cc1ccc(-c2nccnc2C(=O)N(CCc2c[nH]c3ccc(F)cc23)CC(F)F)cc1C` [Example 297, 3-(3,4-Dimethyl-phenyl)-pyrazine-2-carboxylic acid (2,2-difluoro-ethyl)-[2-(5-fluoro-1H-indol-3-yl)-ethyl]-amide], the IC50 was determined as 136 nM on human orexin-2 receptor and 702 nM on human orexin-1 receptor.

For `COc1ccc(-c2sc(C)nc2C(=O)N(CCc2c[nH]c3ccc(F)cc23)CC(=O)N(C)C)cn1` [Example 303, 5-(6-Methoxy-pyridin-3-yl)-2-methyl-thiazole-4-carboxylic acid dimethylcarbamoylmethyl-[2-(5-fluoro-1H-indol-3-yl)-ethyl]-amide], the IC50 came to 551 nM at human orexin-2 receptor and 2350 nM at human orexin-1 receptor.

Consider `COc1ccc(-c2sc(C)nc2C(=O)N(CCc2c[nH]c3ccc(F)cc23)CC(F)F)cn1` [Example 307, 5-(6-Methoxy-pyridin-3-yl)-2-methyl-thiazole-4-carboxylic acid (2,2-difluoro-ethyl)-[2-(5-fluoro-1H-indol-3-yl)-ethyl]-amide], for which the IC50 on human orexin-2 receptor was found to be 20 nM; at human orexin-1 receptor it was 345 nM.

On to `COc1ccc(-c2sc(C)nc2C(=O)N(CCO)CCc2c[nH]c3ccc(F)cc23)cn1` [Example 308, 5-(6-Methoxy-pyridin-3-yl)-2-methyl-thiazole-4-carboxylic acid [2-(5-fluoro-1H-indol-3-yl)-ethyl]-(2-hydroxy-ethyl)-amide], for which the IC50 at human orexin-2 receptor turned out to be 25 nM; on human orexin-1 receptor it was 357 nM.

On to `CCCN(CCc1c[nH]c2ccc(F)cc12)C(=O)c1ncccc1-c1ccc(OC)nc1` [Example 311], for which the 50% inhibitory concentration (IC50) was 16 nM at human orexin-2 receptor and 147 nM at human orexin-1 receptor.

Take `COc1ccc(-c2cccnc2C(=O)N(CCc2c[nH]c3ccc(F)cc23)CC(F)(F)F)cn1` [Example 312]: the figures for the IC50 on human orexin-2 receptor and on human orexin-1 receptor were 76 nM and 346 nM, respectively.

With `COc1ccc(-c2cccnc2C(=O)N(CCc2c[nH]c3ccc(F)cc23)CC(N)=O)cn1` [Example 313, 6′-Methoxy-[3,3′]bipyridinyl-2-carboxylic acid carbamoylmethyl-[2-(5-fluoro-1H-indol-3-yl)-ethyl]-amide], the IC50 on human orexin-2 receptor turned out to be 526 nM; at human orexin-1 receptor, 5260 nM.

Take `COC(=O)CN(CCc1c[nH]c2ccc(F)cc12)C(=O)c1ncccc1-c1ccc(OC)nc1` [Example 315]: the figures for the IC50 on human orexin-2 receptor and at human orexin-1 receptor were 116 nM and 847 nM, respectively.

With `COc1ccc(-c2cccnc2C(=O)N(CCc2c[nH]c3ccc(F)cc23)CC(F)F)cn1` [Example 317, 6′-Methoxy-[3,3′]bipyridinyl-2-carboxylic acid (2,2-difluoro-ethyl)-[2-(5-fluoro-1H-indol-3-yl)-ethyl]-amide], the IC50 came out at 162 nM at human orexin-2 receptor and 760 nM on human orexin-1 receptor.
